Measurements taken from patent US10092584B2 (Achillion Pharmaceuticals, Inc., priority 2015, dated 2018).
Structures can show the parent of a compound that is named as a salt. Where two headings read alike, the source gives them in different places.

Target: T1, Human Factor D (Homo sapiens, UniProt P00746)
T1 construct: purified from human serum; purchased Complement Technology, Inc; host or cells: human serum
Test: Human Factor D assay (Example 8)
Assay type: biochemical
Summary of the method: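 First, compound at various concentrations is mixed with 80 nM (final) human serum Factor D in 50 mM Tris, 1M NaCl, pH 7.5 for 5 min at room temperature.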

[1] = Table 1, Human Factor D 80 nM, substrate Z-L-Lys-SBzl, read-out: IC50
[2] = Table 2, Human Factor D 80 nM, substrate Z-L-Lys-SBzl, read-out: IC50
[3] = Table 3, Human Factor D 80 nM, substrate Z-L-Lys-SBzl, read-out: IC50 (Stars)

T1 sequence (P00746 26-253): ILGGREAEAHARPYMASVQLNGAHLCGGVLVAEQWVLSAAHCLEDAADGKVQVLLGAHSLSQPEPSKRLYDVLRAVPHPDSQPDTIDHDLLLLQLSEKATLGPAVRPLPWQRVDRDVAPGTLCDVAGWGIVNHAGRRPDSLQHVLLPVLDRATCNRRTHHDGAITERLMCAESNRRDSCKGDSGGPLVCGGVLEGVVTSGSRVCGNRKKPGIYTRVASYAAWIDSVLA

| IC50 [2] | SMILES | also measured |
| --- | --- | --- |
| < 1 µM | NC(=O)c1nn(CC(=O)N2CC(=O)C[C@H]2C(=O)Nc2cccc(-c3ccccc3Cl)c2F)c2ccccc12 [Compound 134, (S)-1-(2-(2-(2′-chloro-2-fluorobiphenyl-3-ylcarbamoyl)-4-oxopyrrolidin-1-yl)-2-oxoethyl)-1H-indazole-3-carboxamide] | – |
| < 1 µM | NC(=O)c1nn(CC(=O)N2C(=O)CC[C@H]2C(=O)Nc2cccc(-c3ccccc3Cl)c2F)c2ccccc12 [Compound 135, (S)-1-(2-(2-((2′-Chloro-2-fluoro-[1,1′-biphenyl]-3-yl)carbamoyl)-5-oxopyrrolidin-1-yl)-2-oxoethyl)-1H-indazole-3-carboxamide] | – |
| < 1 µM | NC(=O)c1nn(CC(=O)N2C[C@H](F)C[C@H]2C(=O)Nc2nc3cccc(Cl)c3[nH]2)c2ccccc12 [Compound 136, 1-(2-((2S,4R)-2-(7-chloro-1H-benzo[d]imidazol-2-ylcarbamoyl)-4-fluoropyrrolidin-1-yl)-2-oxoethyl)-1H-indazole-3-carboxamide] | – |
| < 1 µM | NC(=O)c1nn(CC(=O)N2C[C@H](F)C[C@H]2C(=O)Nc2cccc(-c3ccccc3Cl)c2F)c2c(Cl)c(Cl)sc12 [Compound 137, 5,6-Dichloro-1-(2-((2S,4R)-2-((2′-chloro-2-fluoro-[1,1′-biphenyl]-3-yl)carbamoyl)-4-fluoropyrrolidin-1-yl)-2-oxoethyl)-1H-thieno[3,2-c]pyrazole-3-carboxamide] | – |
| < 1 µM | CC(=O)c1nn(CC(=O)N2C[C@H](F)C[C@H]2C(=O)Nc2cccc(-c3ccccc3Cl)c2F)c2cc(C(=O)O)sc12 [Compound 138] | – |
| < 1 µM | NC(=O)c1nn(CC(=O)N2C[C@H](F)C[C@H]2C(=O)Nc2cccc(-c3ccccc3Cl)c2F)c2cc(Cl)sc12 [Compound 139, 5-Chloro-1-(2-((2S,4R)-2-((2′-chloro-2-fluoro-[1,1′-biphenyl]-3-yl)carbamoyl)-4-fluoropyrrolidin-1-yl)-2-oxoethyl)-1H-thieno[3,2-c]pyrazole-3-carboxamide] | – |
| < 1 µM | NCC(=O)c1ccc(Cl)c(-c2cccc(NC(=O)[C@@H]3C[C@@H](F)CN3C(=O)Cn3nc(C(N)=O)c4ccccc43)c2F)c1 [Compound 140, 1-(2-((2S,4R)-2-((2′-Chloro-2-fluoro-5′-glycyl-[1,1′-biphenyl]-3-yl)carbamoyl)-4-fluoropyrrolidin-1-yl)-2-oxoethyl)-1H-indazole-3-carboxamide hydrochloride] | – |
| < 1 µM | NC(=O)c1nn(CC(=O)N2C[C@H](F)C[C@H]2C(=O)Nc2cccc(-c3cc(C(=O)CO)ccc3Cl)c2F)c2ccccc12 [Compound 141, 1-(2-((2S,4R)-2-(2′-chloro-2-fluoro-5′-(2-hydroxyacetyl)bi-phenyl-3-ylcarbamoyl)-4-fluoropyrrolidin-1-yl)-2-oxoethyl)-1H-indazole-3-carboxamide] | – |
| < 1 µM | O=C(Nc1cccc(-c2ccccc2Cl)c1F)[C@@H]1C[C@@H](F)CN1C(=O)Cn1c(=O)[nH]c2ccccc21 [Compound 142, (2S,4R)-N-(2′-chloro-2-fluorobiphenyl-3-yl)-4-fluoro-1-(2-(2-oxo-2,3-dihydro-1H-benzo[d]imidazol-1-yl)acetyl) pyrrolidine-2-carboxamide] | – |

The next lines start with the compound.

| SMILES | IC50 [2] | also measured |
| --- | --- | --- |
| CC(=O)c1cn(CC(=O)N2C[C@H](F)C[C@H]2C(=O)Nc2cccc(-c3ccccc3Cl)c2F)c2c(C3CC3)cccc12 [Compound 115, (2S,4R)-1-(2-(3-acetyl-7-cyclopropyl-1H-indol-1-yl)acetyl)-N-(2′-chloro-2-fluorobiphenyl-3-yl)-4-fluoropyrrolidine-2-carboxamide] | – | IC50: < 1 µM |
| CC(=O)c1ccc(Cl)c(-c2cccc(NC(=O)[C@@H]3C[C@@H](F)CN3C(=O)Cn3nc(C(N)=O)c4ccccc43)c2F)c1 [Compound 117, 1-(2-((2S,4R)-2-((5′-Acetyl-2′-chloro-2-fluoro-[1,1′-biphenyl]-3-yl)carbamoyl)-4-fluoropyrrolidin-1-yl)-2-oxoethyl)-1H-indazole-3-carboxamide] | – | IC50: < 1 µM |
| Cc1cc2c(s1)c(C(N)=O)nn2CC(=O)N1C[C@H](F)C[C@H]1C(=O)Nc1cccc(Br)n1 [Compound 118, 1-(2-((2S,4R)-2-(6-bromopyridin-2-ylcarbamoyl)-4-fluoropyrrolidin-1-yl)-2-oxoethyl)-5-methyl-1H-thieno[3,2-c]pyrazole-3-carboxamide] | – | IC50 [1]: < 1 µM |
| CC(=O)c1cn(CC(=O)N2C[C@H](F)C[C@H]2C(=O)Nc2cccc(Br)n2)c2ccc(C3(NC(=O)c4ncccn4)CC3)cc12 [Compound 119, N-(1-(3-acetyl-1-(2-((2S,4R)-2-(6-bromopyridin-2-ylcarbamoyl)-4-fluoropyrrolidin-1-yl)-2-oxoethyl)-1H-indol-5-yl)cyclopropyl) pyrimidine-2-carboxamide] | – | IC50: < 1 µM |
| NC(=O)c1nn(CC(=O)N2C[C@H](F)C[C@H]2C(=O)Nc2cccc(-c3cc(OC(F)(F)F)ccc3Cl)c2F)c2ccccc12 [Compound 120, 1-(2-((2S,4R)-2-(2′-chloro-2-fluoro-5′-(trifluoromethoxy)biphenyl-3-ylcarbamoyl)-4-fluoropyrrolidin-1-yl)-2-oxoethyl)-1H-indazole-3-carboxamide] | – | IC50: < 1 µM |
| NC(=O)c1cn(CC(=O)N2C[C@H](F)C[C@H]2c2nc3cc(-c4ccccc4Cl)ccc3[nH]2)c2ccccc12 [Compound 121, 1-(2-((2S,4R)-2-(5-(2-chlorophenyl)-1H-benzo[d]imidazol-2-yl)-4-fluoropyrrolidin-1-yl)-2-oxoethyl)-1H-indole-3-carboxamide] | – | IC50: > 10 µM |
| NC(=O)c1nn(CC(=O)N2C[C@H](F)C[C@H]2C(=O)Nc2cccc(-c3ccc4[nH]cnc4c3Cl)c2F)c2ccccc12 [Compound 122, 1-(2-((2S,4R)-2-(3-(4-chloro-1H-benzo[d]imidazol-5-yl)-2-fluorophenylcarbamoyl)-4-fluoropyrrolidin-1-yl)-2-oxoethyl)-1H-indazole-3-carboxamide] | – | IC50: < 1 µM |
| CC(=O)c1cn(CC(=O)N2C[C@H](F)C[C@H]2C(=O)Nc2cccc(Br)n2)c2ccc(C3(NC(=O)OC(C)(C)C)CC3)cc12 [Compound 123, tert-butyl 1-(3-acetyl-1-(2-((2S,4R)-2-(6-bromopyridin-2-ylcarbamoyl)-4-fluoropyrrolidin-1-yl)-2-oxoethyl)-1H-indol-5-yl)cyclopropyl-carbamate] | – | IC50: < 1 µM |
| CC(=O)c1cn(CC(=O)N2C[C@H](F)C[C@H]2C(=O)Nc2cccc(-c3ccccc3Cl)c2F)c2c(C#Cc3ncc(F)cn3)cccc12 [Compound 124, (2S,4R)-1-(2-(3-acetyl-7-((5-fluoropyrimidin-2-yl)ethynyl)-1H-indol-1-yl)acetyl)-N-(2′-chloro-2-fluorobiphenyl-3-yl)-4-fluoropyrrolidine-2-carboxamide] | – | IC50: < 1 µM |
| CC(=O)c1cn(CC(=O)N2C[C@H](F)C[C@H]2C(=O)Nc2cccc(Br)n2)c2ccc(C3(NC(=O)c4cncnc4)CC3)cc12 [Compound 126, N-(1-(3-acetyl-1-(2-((2S,4R)-2-(6-bromopyridin-2-ylcarbamoyl)-4-fluoropyrrolidin-1-yl)-2-oxoethyl)-1H-indol-5-yl)cyclopropyl) pyrimidine-5-carboxamide] | – | IC50 [1]: < 1 µM |
| COC(=O)c1cc2c(s1)c(C(N)=O)nn2CC(=O)N1C[C@H](F)C[C@H]1C(=O)Nc1cccc(-c2ccccc2Cl)c1F [Compound 129, methyl 3-carbamoyl-1-(2-((2S,4R)-2-(2′-chloro-2-fluorobiphenyl-3-ylcarbamoyl)-4-fluoropyrrolidin-1-yl)-2-oxoethyl)-1H-thieno[3,2-c]pyrazole-5-carboxylate] | < 1 µM | – |
| NC(=O)c1nn(CC(=O)N2C[C@H](F)C[C@H]2C(=O)Nc2cccc(-c3cc(F)c(F)cc3Cl)c2F)c2ccc(Br)cc12 [Compound 130, 5-bromo-1-(2-((2S,4R)-2-(2′-chloro-2,4′,5′-trifluorobiphenyl-3-ylcarbamoyl)-4-fluoropyrrolidin-1-yl)-2-oxoethyl)-1H-indazole-3-carboxamide] | < 1 µM | – |
| CC(=O)c1nn(CC(=O)N2C[C@H](F)C[C@H]2C(=O)Nc2cccc(-c3ccccc3Cl)c2F)c2cc(C)sc12 [Compound 131, (2S,4R)-1-(2-(3-acetyl-5-methyl-1H-thieno[3,2-c]pyrazol-1-yl)acetyl)-N-(2′-chloro-2-fluorobiphenyl-3-yl)-4-fluoropyrrolidine-2-carboxamide] | < 1 µM | – |
| NC(=O)c1nn(CC(=O)N2C[C@H](F)C[C@H]2C(=O)Nc2cccc(-c3ccccc3Cl)c2F)c2cc(C(=O)O)sc12 [Compound 132, 3-carbamoyl-1-(2-((2S,4R)-2-(2′-chloro-2-fluorobiphenyl-3-ylcarbamoyl)-4-fluoropyrrolidin-1-yl)-2-oxoethyl)-1H-thieno[3,2-c]pyrazole-5-carboxylic acid] | < 1 µM | – |
| O=C(NCc1cccc(Cl)c1F)[C@@H]1C[C@@H](F)CN1C(=O)Cn1cc(-c2cnco2)c2ccccc21 [Compound 133, (2S,4R)-N-(3-chloro-2-fluorobenzyl)-4-fluoro-1-(2-(3-(oxazol-5-yl)-1H-indol-1-yl)acetyl) pyrrolidine-2-carboxamide] | < 1 µM | – |
| NC(=O)c1nn(CC(=O)N2C(=O)CC[C@H]2C(=O)Nc2cccc(-c3ccccc3Cl)c2F)c2ccccc12 [Compound 260, (S)-1-(2-(2-(2′-Chloro-2-fluorobiphenyl-3-ylcarbamoyl)-5-oxopyrrolidin-1-yl)-2-oxoethyl)-1H-indazole-3-carboxamide] | – | IC50 [3]: < 1 µM |
| CC(=O)c1nn(CC(=O)N2C[Si](C)(C)C[C@H]2C(=O)NCc2cccc(Cl)c2F)c2ccccc12 [Compound 268, (R)-1-(2-(3-acetyl-1H-indazol-1-yl)acetyl)-N-(3-chloro-2-fluorobenzyl)-3,3-dimethyl-1,3-azasilolidine-5-carboxamide] | – | IC50 [3]: 1 to 10 µM |
| CC(=O)c1nn(CC(=O)N2C[Si](C)(C)C[C@H]2C(=O)Nc2cccc(Br)n2)c2ccccc12 [Compound 271, (R)-1-(2-(3-acetyl-1H-indazol-1-yl)acetyl)-N-(6-bromopyridin-2-yl)-3,3-dimethyl-1,3-azasilolidine-5-carboxamide] | – | IC50 [3]: 1 to 10 µM |
